According to article PMC3750051, “A New Class of Rhomboid Protease Inhibitors Discovered by Activity-Based Fluorescence Polarization” (PLoS ONE, 2013):

How the values were obtained:
E. coli rhomboid GlpG [1] = molecular target: T1, E. coli rhomboid GlpG (Escherichia coli, UniProt P09391); assay: biochemical
GlpG [2] = molecular target: T2, GlpG (Escherichia coli, UniProt P09391); assay: Gel-based competitive activity-based probe profiling (competitive ABPP); assay type: biochemical, E. coli; conditions: for blocking of EK2 labeling of GlpG (gel-based competitive ABPP): 100 µM compound, 45 nM GlpG, 1 µM probe EK2
Description: For the competitive activity-based probe profiling (competitive ABPP) experiment 45 nM of rhomboid in 20 µl of 50 mM HEPES (pH 7.4) containing 10% glycerol and 0.0125% DDM were incubated for 30 min at 37°C shaking with 100 µM of the compound or an equal volume of DMSO. Then either probe EK2 or FP-R was added to a final concentration of 1 µM and incubated for further 30 min at 37°C shaking in the dark. The labeling reaction was stopped with 4× SDS-sample buffer and 10 µl of the reaction (15 ng protein per lane) was applied to a 15% SDS-polyacrylamide gel and run for 1 h 10 min at 200V. The gel was visualized on a fluorescence scanner (Typhoon, Trio +).

GlpG [3] = molecular target: T2, GlpG; assay: Substrate cleavage of fluorescently labeled TatA (Providencia stuartii) by GlpG; assay type: biochemical, E. coli; conditions: 100 µM compound, 500 nM GlpG, 83 nM TAMRA-labeled TatA, overnight at 37°C
Description: The TatA protein from Providencia stuartii was used for generation of a fluorescence substrate. The substrate was constructed to include a His6-tag for purification as well as a LPRTG-motif for sortase-mediated protein labeling. It was expressed and purified as described above. For the labeling reaction, 33 µM of the unlabeled substrate, 50 µM sortase A from S. aureus and 500 µM of the label NH2-Ala-Ala-Ahx-Lys(TAMRA) were added together in labeling buffer (50 mM Tris, pH 7.5 containing 150 mM NaCl, 10 mM CaCl2 and 0.05% (w/v) DDM) and allowed to react o/n at 37°C in the dark. […] This allowed removal of sortase and unlabeled substrate by incubation of the labeling reaction with Ni-NTA agarose beads. The supernatant was applied to a ZEBA-spin desalting column (VWR; MW-cut-off 7 kDa) to remove excess label. 40 µL of a 500 nM rhomboid solution (in 50 mM HEPES (pH 7.4) containing 10% (v/v) glycerol and 0.0125% (w/v) DDM) were incubated for 30 min at 37°C shaking with 100 µM of the compounds or DMSO. Then fluorescently labeled rhomboid substrate TatA (Providencia stuartii) was added to a final concentration of 83 nM. The cleavage reaction was allowed to take place o/n at 37°C shaking in the dark and stopped by the addition of 4× SDS-sample buffer. 10 µl of each reaction (10 ng protein per lane) was applied to a 15% SDS-polyacrylamide gel and run for 1 h 10 min at 200V. The gel was visualized on a fluorescence scanner (Typhoon, Trio +).

GlpG [4] = molecular target: T2, GlpG; assay type: biochemical, E. coli; conditions: 36 nM GlpG WT or S201A mutant, 100 µM compound, click reaction with TAMRA-azide
bovine chymotrypsin [5] = molecular target: T3, bovine chymotrypsin (Bos taurus, UniProt P00766); assay: IC50 against chymotrypsin; assay type: biochemical; conditions: for IC50: bovine chymotrypsin, read-out: apparent IC50 against chymotrypsin; for potency against GlpG compared with trypsin and chymotrypsin: comparison of apparent IC50 values
bovine trypsin = molecular target: T4, bovine trypsin (Bos taurus, UniProt P00760); assay: IC50 against trypsin; assay type: biochemical; conditions: read-out: apparent IC50 against trypsin
T4 sequence (P00760 24-246): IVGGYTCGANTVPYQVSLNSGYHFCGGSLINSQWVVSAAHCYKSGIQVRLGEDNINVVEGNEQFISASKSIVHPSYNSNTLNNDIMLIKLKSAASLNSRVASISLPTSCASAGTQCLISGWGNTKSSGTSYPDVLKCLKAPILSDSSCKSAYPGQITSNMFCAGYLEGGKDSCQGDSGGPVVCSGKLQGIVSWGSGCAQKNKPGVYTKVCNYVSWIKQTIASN

E. coli rhomboid GlpG [6] = molecular target: T1, E. coli rhomboid GlpG; assay type: biochemical; conditions: 100 µM compound; for FluoPol signal, % of wild-type signal: 30 min preincubation, 75 nM FP-R, polarization at 4 h, GlpG WT = 100%, duplicate screens
bovine chymotrypsin [7] = molecular target: T3, bovine chymotrypsin; design: method as in PMID 23359682; conditions: cited from earlier work
GlpG from E. coli = GlpG from E. coli (Escherichia coli, UniProt P09391); assay type: biochemical; conditions: 1 µM probe, 45 nM GlpG WT or inactive S201A mutant, 30 min
Sequence of GlpG from E. coli (P09391 whole entry): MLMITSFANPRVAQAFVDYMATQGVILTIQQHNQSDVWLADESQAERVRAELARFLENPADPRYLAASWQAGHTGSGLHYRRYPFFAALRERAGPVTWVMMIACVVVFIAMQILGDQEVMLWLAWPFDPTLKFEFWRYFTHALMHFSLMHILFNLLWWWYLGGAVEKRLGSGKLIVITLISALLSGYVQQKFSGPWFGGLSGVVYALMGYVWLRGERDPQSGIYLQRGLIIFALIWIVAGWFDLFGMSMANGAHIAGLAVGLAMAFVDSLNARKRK

T1 sequence (P09391 whole entry): as above
T2 sequence (P09391 whole entry): as above

| Compound | IC50 (E. coli rhomboid GlpG [1]) | blocking of EK2 labeling of GlpG (gel-based competitive ABPP) (GlpG [2]) | inhibition of substrate cleavage (GlpG [3]) | other results |
| --- | --- | --- | --- | --- |
| Nc1ccc2c(Cl)c(OCCc3cn(Cc4ccccc4)nn3)oc(=O)c2c1 [Compound 27] | 3.1 ± 0.91 µM | able to block | able to block |  |
| CCCCOc1oc(=O)c2cc([N+](=O)[O-])ccc2c1Cl [Compound 11] | 5.5 ± 0.55 µM | able to block | able to block |  |
| C#CCCC[C@@H]1OC(=O)[C@H]1CCCC [Compound 31] | 26 ± 5.8 µM | able to block | able to block | tandem activity-based labeling of GlpG (fluorescent gel band) (GlpG [4]): Wild-type GlpG, but not the inactive S201A mutant was visualized; IC50 (bovine chymotrypsin [5]): > 50 µM; potency against GlpG compared with trypsin and chymotrypsin (bovine chymotrypsin [5]): higher potency against GlpG than against trypsin and chymotrypsin; IC50 (bovine trypsin): > 150 µM |
| O=c1oc(OCCBr)c(Cl)c2ccc([N+](=O)[O-])cc12 [Compound 12] | 8.4 ± 1.7 µM | able to block | able to block | FluoPol signal, % of wild-type signal (E. coli rhomboid GlpG [6]): slightly negative |
| C#CCCCC(=O)OCC1=CC2(CC=C(C)C)C(=O)OC2C1 (stereo not shown) [Compound 43] | 44 ± 10 µM | able to block | able to block | tandem activity-based labeling of GlpG (fluorescent gel band) (GlpG [4]): Wild-type GlpG, but not the inactive S201A mutant was visualized; IC50 (bovine chymotrypsin [5]): > 50 µM; potency against GlpG compared with trypsin and chymotrypsin (bovine chymotrypsin [5]): higher potency against GlpG than against trypsin and chymotrypsin; IC50 (bovine trypsin): > 150 µM |
| O=c1oc(OCCCCCc2ccccc2)c(Cl)c2ccc([N+](=O)[O-])cc12 [Compound 10] | 5.2 ± 0.8 µM | able to block | able to block | FluoPol signal, % of wild-type signal (E. coli rhomboid GlpG [6]): slightly negative |
| Nc1ccc2c(Cl)c(OCCc3ccccc3)oc(=O)c2c1 [S016, reference compound] | 1.1 ± 0.56 µM |  |  | potency against chymotrypsin compared with GlpG (bovine chymotrypsin [7]): more potent against chymotrypsin than against GlpG; prevention of probe labeling of GlpG WT by pre-inhibition (GlpG [2]; 100 µM inhibitor, 30 min, 1 µM probe EK2 or FP-R): Labeling was also prevented |
| Nc1ccc2c(Cl)c(OCCCCCc3ccccc3)oc(=O)c2c1 [Compound 2] | 0.75 ± 0.21 µM | able to block | able to block |  |
| CN(C)c1ccc2c(-c3ccc(C(=O)NCCCn4cc(CCOc5oc(=O)c6cc(N)ccc6c5Cl)nn4)cc3C(=O)[O-])c3ccc(=[N+](C)C)cc-3oc2c1 [EK2] |  |  |  | activity-based labeling of GlpG by the probe (GlpG from E. coli): labeled wild-type (WT) GlpG from E. coli, but not the inactive S201A mutant |
| vibralactone [reference compound] |  |  |  | activity against rhomboid (E. coli rhomboid GlpG [6]; FluoPol ABPP screen): inactive |
| CCCCOc1oc(=O)c2cc(N)ccc2c1Cl [Compound 3] | 0.4 ± 0.1 µM | able to block | able to block | FluoPol signal, % of wild-type signal (E. coli rhomboid GlpG [6]): slightly negative |
